# Values of other authors, collected in patent US20220323437A1, “METHODS FOR TREATING PULMONARY ARTERIAL HYPERTENSION” (ACTELION PHARMACEUTICALS LTD, priority 2019, published 2022).
# Details: selexipag versus placebo; cited from earlier work
smiles,measurement,value
"CC(C)N(CCCCOCC(=O)NS(C)(=O)=O)c1cnc(-c2ccccc2)c(-c2ccccc2)n1 [selexipag, 2-{4-[(5,6-diphenylpyrazin-2-yl)(propan-2-yl)amino]butoxy}-N-(methanesulfonyl)acetamide]",risk of the primary composite end point of death or a complication related to pulmonary arterial hypertension,significantly lower
